Results reported in patent US20110166149A1, “PTERIDINE DERIVATIVES FOR TREATING RESPIRATORY DISEASE” (TARGEGEN INC., priority 2008, published 2011).

Experiments:
[1] = Aerodynamic particle size of nebulized suspensions, 7 stage impactor (Example 1); assay type: physicochemical; details: nebulized suspension
Experimental: 6,7-bis(3-hydroxyphenyl)-pteridine-2,4-diamine (Compound A) was formulated as a 20% suspension in a 5% tyloxapol solution in water. Particle size reduction was achieved using a colloid mill (magicLAB®, MK module, for 6 hours @ 12,000 rpm, while maintaining a temperature below 50° C.). Samples at 4, 0.4, 0.04 and 0.004% of compound A were prepared by dilution with DI water.
Nebulizations of the suspensions were carried out using a Pari LC Plus @ 3 LPM, using an active diluter at 5 LPM in a CH technologies nose-only exposure chamber. Aerodynamic particle size was determined by a 7 stage impactor from Intox at 1 LPM. Each stage extracted with acetonitrile:water 1:1 with 0.05% TFA and analyzed by HPLC against an external standard.

[2] = test system: ovalbumin (OVA) challenged mice; assay: Mouse airway resistance, methacholine challenge (Example 4); assay type: in vivo; details: aerosolized formulations, FIG. 4
Experimental: A series of compositions for pulmonary delivery were prepared by first preparing a 20% suspension of compound A in a 5% tyloxapol solution in water. Particle size reduction was achieved using a colloid mill (magicLAB®, MK module, for 6 hours @ 12,000 rpm, while maintaining a temperature below 50° C.). Samples at 4% compound A were prepared by dilution with DI water. A 0.4% compound A suspension in 0.1% tyloxapol solution was made by dilution with SWFI (6.02 g of the 20% suspension was QS to 30.23 g with SWFI) and the following suspensions were also prepared: • […] in 0.01% tyloxapol solution: 2.52 g of a 0.4% compound A suspension was diluted to 100 g with SWFI water. • 0.01% compound A suspension in 0.01% tyloxapol solution: 10 g of a 0.1% compound A suspension was diluted to 100 g with SWFI water. • 0.001% compound A suspension in 0.01% tyloxapol solution 3: 10 g of a 0.1% compound A suspension was diluted to 100 g with SWFI water. […] Airway resistance in the model is induced via a methacholine challenge. Airway resistance is both a diagnostic and a hallmark of respiratory diseases such as asthma and COPD and the reduction of airway resistance is considered a beneficial outcome.

MMAD (GSD) ([1]; 0.004% Compound A): 0.64 (2.35) | MMAD (GSD) ([1]; 0.04% Compound A): 0.69 (1.74) | MMAD (GSD) ([1]; 0.4% Compound A): 0.83 (1.87) | MMAD (GSD) ([1]; 4% Compound A, MMAD = mass median aerodynamic diameter, GSD = geometric standard deviation): 1.35 (1.98)
Structure (SMILES): Nc1nc(N)c2nc(-c3cccc(O)c3)c(-c3cccc(O)c3)nc2n1 [Compound A, 6,7-bis(3-hydroxyphenyl)-pteridine-2,4-diamine]
airway resistance [2]: reduced airway resistance
